Experimental data from patent US10717716B2, “1,3,4-oxadiazole derivative compounds as histone deacetylase 6 inhibitor, and the pharmaceutical composition comprising the same” (Chong Kun Dang Pharmaceutical Corp., priority 2015, dated 2020).

Molecular target: T1, human recombinant HDAC6 (Homo sapiens, UniProt Q9UBN7)
T1 construct: purchased Calbiochem 382180
T1 sequence (Q9UBN7 1-1215): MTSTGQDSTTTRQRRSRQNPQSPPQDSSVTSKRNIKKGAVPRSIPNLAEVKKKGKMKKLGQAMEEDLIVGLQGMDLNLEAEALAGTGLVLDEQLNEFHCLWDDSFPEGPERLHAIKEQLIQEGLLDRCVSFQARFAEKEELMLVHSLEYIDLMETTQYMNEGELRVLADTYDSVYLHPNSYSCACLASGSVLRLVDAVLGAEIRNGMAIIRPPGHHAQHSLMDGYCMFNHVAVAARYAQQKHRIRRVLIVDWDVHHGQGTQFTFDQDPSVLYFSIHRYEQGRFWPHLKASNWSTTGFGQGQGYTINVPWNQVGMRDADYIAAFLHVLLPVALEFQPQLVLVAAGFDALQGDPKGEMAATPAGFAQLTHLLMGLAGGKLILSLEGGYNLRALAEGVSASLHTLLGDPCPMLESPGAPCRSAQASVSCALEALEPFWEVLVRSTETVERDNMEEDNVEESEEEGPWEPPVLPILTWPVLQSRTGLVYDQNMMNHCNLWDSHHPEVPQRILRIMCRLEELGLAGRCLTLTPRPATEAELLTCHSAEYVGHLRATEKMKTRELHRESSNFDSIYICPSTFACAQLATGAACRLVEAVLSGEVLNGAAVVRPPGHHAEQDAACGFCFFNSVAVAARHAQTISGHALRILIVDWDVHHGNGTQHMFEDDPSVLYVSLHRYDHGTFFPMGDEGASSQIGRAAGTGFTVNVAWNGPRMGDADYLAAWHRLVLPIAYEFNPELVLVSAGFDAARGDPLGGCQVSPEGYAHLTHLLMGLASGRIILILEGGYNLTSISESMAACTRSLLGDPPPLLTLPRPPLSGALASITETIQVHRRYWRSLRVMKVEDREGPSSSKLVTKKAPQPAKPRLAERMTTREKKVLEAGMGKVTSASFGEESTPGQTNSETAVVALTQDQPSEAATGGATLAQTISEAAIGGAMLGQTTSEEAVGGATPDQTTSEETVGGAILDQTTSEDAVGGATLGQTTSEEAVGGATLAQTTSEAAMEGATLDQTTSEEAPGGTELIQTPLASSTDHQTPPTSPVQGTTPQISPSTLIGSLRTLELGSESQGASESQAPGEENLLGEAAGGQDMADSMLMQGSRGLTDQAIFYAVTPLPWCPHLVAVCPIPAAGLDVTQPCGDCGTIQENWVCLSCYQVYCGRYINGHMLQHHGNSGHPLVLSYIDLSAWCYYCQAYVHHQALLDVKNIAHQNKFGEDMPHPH
Assay: HDAC6 enzyme activity inhibition assay (HDAC Fluorimetric Drug Discovery Kit)
Type: biochemical
Settings: for HDAC6 selectivity (fold): HDAC6 over HDAC1; for IC50: human recombinant HDAC6, same protocol as HDAC1, read-out: HDAC6
Outline: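 Fluorimetric deacetylase assay: 5-fold serial compound dilutions, 0.3 μg recombinant human enzyme (HDAC1 or HDAC6, same protocol), 10 μM Fluor de Lys-SIRT1 substrate, 60 min at 30 °C. Signal developed 30 min, measured at 360/460 nm; IC50 values derived.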

CCCCN(Cc1ccc(-c2nnc(C(F)(F)F)o2)cc1)C(=O)N1CCOCC1 [Compound 21401, N-butyl-N-(4-(5-(trifluoromethyl)-1,3,4-oxadiazol-2-yl)benzyl)morpholine-4-carboxamide]
HDAC6 selectivity (fold): 20 fold
IC50: 497 nM

CCCN(C)C(=O)N(Cc1ccc(-c2nnc(C(F)(F)F)o2)cc1)c1ccccc1 [Compound 21402, 1-Methyl-3-phenyl-1-propyl-3-(4-(5-(trifluoromethyl)-1,3,4-oxadiazol-2-yl)benzyl)urea]
HDAC6 selectivity (fold): 45 fold
IC50: 222 nM

O=C(N1CCN(c2ccccn2)CC1)N(Cc1ccc(-c2nnc(C(F)(F)F)o2)cc1)c1ccccc1 [Compound 21403, N-phenyl-4-(pyridin-2-yl)-N-(4-(5-(trifluoromethyl)-1,3,4-oxadiazol-2-yl)benzyl)piperazine-1-carboxamide]
HDAC6 selectivity (fold): 30 fold
IC50: 334 nM

CCOC(=O)CN1[C@H](C)CN(C(=O)N(Cc2ccc(-c3nnc(C(F)(F)F)o3)cc2)c2ccccc2)C[C@@H]1C [Compound 21404, Ethyl 2-((2S,6R)-2,6-dimethyl-4-(phenyl(4-(5-(trifluoromethyl)-1,3,4-oxadiazol-2-yl)benzyl)carbamoyl)piperazin-1-yl)acetate]
HDAC6 selectivity (fold): 40 fold
IC50: 247 nM

O=C(N1CCOCC1)N(Cc1ccc(-c2nnc(C(F)(F)F)o2)cc1)c1cccc(C(F)(F)F)c1 [Compound 21405, N-(4-(5-(trifluoromethyl)-1,3,4-oxadiazol-2-yl)benzyl)-N-(3-(trifluoromethyl)phenyl)morpholine-4-carboxamide]
HDAC6 selectivity (fold): 28 fold
IC50: 354 nM

O=C(N1CCOCC1)N(Cc1ccc(-c2nnc(C(F)(F)F)o2)cc1)c1ccc(C(F)(F)F)cc1 [Compound 21406, N-(4-(5-(trifluoromethyl)-1,3,4-oxadiazol-2-yl)benzyl)-N-(4-(trifluoromethyl)phenyl)morpholine-4-carboxamide]
HDAC6 selectivity (fold): 16 fold
IC50: 619 nM

O=C(N1CCOCC1)N(Cc1ccc(-c2nnc(C(F)(F)F)o2)cc1)c1cccc(F)c1 [Compound 21407, N-(3-fluorophenyl)-N-(4-(5-(trifluoromethyl)-1,3,4-oxadiazol-2-yl)benzyl)morpholine-4-carboxamide]
HDAC6 selectivity (fold): 71 fold
IC50: 140 nM

O=C(N1CCOCC1)N(Cc1ccc(-c2nnc(C(F)(F)F)o2)cc1)c1cccc(C(F)(F)F)n1 [Compound 21408, N-(4-(5-(trifluoromethyl)-1,3,4-oxadiazol-2-yl)benzyl)-N-(6-(trifluoromethyl)pyridin-2-yl)morpholine-4-carboxamide]
HDAC6 selectivity (fold): 14 fold
IC50: 706 nM

O=C(N1CCS(=O)(=O)CC1)N(Cc1ccc(-c2nnc(C(F)(F)F)o2)cc1)c1ccccn1 [Compound 21409, N-(pyridin-2-yl)-N-(4-(5-(trifluoromethyl)-1,3,4-oxadiazol-2-yl)benzyl)thiomorpholine-4-carboxamide 1,1-dioxide]
HDAC6 selectivity (fold): 33 fold
IC50: 304 nM

O=C(N1CCS(=O)(=O)CC1)N(Cc1ccc(-c2nnc(C(F)(F)F)o2)cc1Cl)c1ccccc1 [Compound 21410, N-(2-chloro-4-(5-(trifluoromethyl)-1,3,4-oxadiazol-2-yl)benzyl)-N-phenylthiomorpholine-4-carboxamide 1,1-dioxide]
HDAC6 selectivity (fold): 12 fold
IC50: 840 nM

O=C(N1CCS(=O)(=O)CC1)N(Cc1ccc(-c2nnc(C(F)F)o2)cc1Cl)c1ccccc1 [Compound 21411, N-(2-chloro-4-(5-(difluoromethyl)-1,3,4-oxadiazol-2-yl)benzyl)-N-phenylthiomorpholine-4-carboxamide 1,1-dioxide]
HDAC6 selectivity (fold): 5 fold
IC50: 2150 nM

O=C(N1CCS(=O)(=O)CC1)N(Cc1ccc(-c2nnc(C(F)(F)F)o2)cc1)c1ccc(C(F)(F)F)cc1 [Compound 21412, N-(4-(5-(trifluoromethyl)-1,3,4-oxadiazol-2-yl)benzyl)-N-(4-(trifluoromethyl)phenyl)thiomorpholine-4-carboxamide 1,1-dioxide]
HDAC6 selectivity (fold): 21 fold
IC50: 470 nM

O=C(N1CCS(=O)(=O)CC1)N(Cc1ccc(-c2nnc(C(F)(F)F)o2)cc1)c1ccc(Br)cc1 [Compound 21413, N-(4-bromophenyl)-N-(4-(5-(trifluoromethyl)-1,3,4-oxadiazol-2-yl)benzyl)thiomorpholine-4-carboxamide 1,1-dioxide]
HDAC6 selectivity (fold): 41 fold
IC50: 246 nM

O=C(N1CCOCC1)N(Cc1ccc(-c2nnc(C(F)(F)F)o2)cc1)c1ccc(F)cc1F [Compound 21414, N-(2,4-difluorophenyl)-N-(4-(5-(trifluoromethyl)-1,3,4-oxadiazol-2-yl)benzyl)morpholine-4-carboxamide]
HDAC6 selectivity (fold): 79 fold
IC50: 126 nM

Cc1ccc(N(Cc2ccc(-c3nnc(C(F)(F)F)o3)cc2)C(=O)N2CCOCC2)c(F)c1 [Compound 21415, N-(2-fluoro-4-methylphenyl)-N-(4-(5-(trifluoromethyl)-1,3,4-oxadiazol-2-yl)benzyl)morpholine-4-carboxamide]
HDAC6 selectivity (fold): 33 fold
IC50: 299 nM

CC(C)(C)OC(=O)N1CC2(CCN(C(=O)N(Cc3ccc(-c4nnc(C(F)(F)F)o4)cc3)c3ccccc3)CC2)C1 [Compound 21416, Ten-butyl 7-(phenyl(4-(5-(trifluoromethyl)-1,3,4-oxadiazol-2-yl)benzyl)carbamoyl)-2,7-diazaspiro[3.5]nonane-2-carboxylate]
HDAC6 selectivity (fold): 6 fold
IC50: 1590 nM

O=C(N1CCC2(CC1)CNC2)N(Cc1ccc(-c2nnc(C(F)(F)F)o2)cc1)c1ccccc1 [Compound 21417, N-phenyl-N-(4-(5-(trifluoromethyl)-1,3,4-oxadiazol-2-yl)benzyl)-2,7-diazaspiro[3.5]nonane-7-carboxamide]
HDAC6 selectivity (fold): 143 fold
IC50: 70 nM

CC(=O)N1CC2(CCN(C(=O)N(Cc3ccc(-c4nnc(C(F)(F)F)o4)cc3)c3ccccc3)CC2)C1 [Compound 21418, 2-Acetyl-N-phenyl-N-(4-(5-(trifluoromethyl)-1,3,4-oxadiazol-2-yl)benzyl)-2,7-diazaspiro[3.5]nonane-7-carboxamide]
HDAC6 selectivity (fold): 65 fold
IC50: 154 nM

CS(=O)(=O)N1CC2(CCN(C(=O)N(Cc3ccc(-c4nnc(C(F)(F)F)o4)cc3)c3ccccc3)CC2)C1 [Compound 21419, 2-(Methylsulfonyl)-N-phenyl-N-(4-(5-(trifluoromethyl)-1,3,4-oxadiazol-2-yl)benzyl)-2,7-diazaspiro[3.5]nonane-7-carboxamide]
HDAC6 selectivity (fold): 130 fold
IC50: 77 nM

CN1CC2(CCN(C(=O)N(Cc3ccc(-c4nnc(C(F)(F)F)o4)cc3)c3ccccc3)CC2)C1 [Compound 21420, 2-Methyl-N-phenyl-N-(4-(5-(trifluoromethyl)-1,3,4-oxadiazol-2-yl)benzyl)-2,7-diazaspiro[3.5]nonane-7-carboxamide]
HDAC6 selectivity (fold): 143 fold
IC50: 70 nM

CCN1CC2(CCN(C(=O)N(Cc3ccc(-c4nnc(C(F)(F)F)o4)cc3)c3ccccc3)CC2)C1 [Compound 21421, 2-Ethyl-N-phenyl-N-(4-(5-(trifluoromethyl)-1,3,4-oxadiazol-2-yl)benzyl)-2,7-diazaspiro[3.5]nonane-7-carboxamide]
HDAC6 selectivity (fold): 149 fold
IC50: 67 nM

CC(=O)N1CCCN(C(=O)N(Cc2ccc(-c3nnc(C(F)(F)F)o3)cc2)c2ccccc2)CC1 [Compound 21422, 4-Acetyl-N-phenyl-N-(4-(5-(trifluoromethyl)-1,3,4-oxadiazol-2-yl)benzyl)-1,4-diazepane-1-carboxamide]
HDAC6 selectivity (fold): 95 fold
IC50: 105 nM

CN1CCCN(C(=O)N(Cc2ccc(-c3nnc(C(F)F)o3)cc2F)c2ccccc2)CC1 [Compound 21423, N-(4-(5-(difluoromethyl)-1,3,4-oxadiazol-2-yl)-2-fluorobenzyl)-4-methyl-N-phenyl-1,4-diazepane-1-carboxamide]
HDAC6 selectivity (fold): 377 fold
IC50: 26.5 nM
